Data as given in patent publication US20250170141A1, “MRGPRX2 MODULATORS AND RELATED METHODS OF TREATMENT” (Escient Pharmaceuticals, Inc., priority 2023, published 2025).

Target: T1, human MRGPRX2 (Homo sapiens, UniProt Q96LB1)
T1 construct: expressed in transfected cells; host or cells: CHO cells, stably transfected (G418 and Hygromycin B selection)
T1 sequence (Q96LB1 1-330): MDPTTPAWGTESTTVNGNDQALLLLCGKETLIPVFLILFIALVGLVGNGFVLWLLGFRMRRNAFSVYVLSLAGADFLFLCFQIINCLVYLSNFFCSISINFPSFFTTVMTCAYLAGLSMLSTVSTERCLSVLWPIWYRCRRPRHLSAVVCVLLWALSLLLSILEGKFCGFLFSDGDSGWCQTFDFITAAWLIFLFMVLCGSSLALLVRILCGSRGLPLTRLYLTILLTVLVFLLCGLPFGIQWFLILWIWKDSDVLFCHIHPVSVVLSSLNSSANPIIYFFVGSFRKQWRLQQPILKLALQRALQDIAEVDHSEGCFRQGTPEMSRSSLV
Experiment: MRGPRX2 activity: IP-One Gq HTRF assay in CHO cells, antagonism versus 0.3 uM Cortistatin-14
Assay type: cell-based
Details: versus 0.3 uM Cortistatin-14 agonist, CHO cells expressing human MRGPRX2, read-out: MRGPRX2 Antagonist Activity
Method in brief: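 Antagonist IC50 was derived from the HTRF IP-1 signal after co-addition of compounds (10 points, top 30 uM, 3-fold steps) and 0.3 μM Cortistatin-14 agonist to human MRGPRX2-expressing CHO cells. Assay buffer contained 50 mM LiCl, pH 8; plates sat 1 h at 37 °C, then 1 h at room temperature.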

| Compound | IC50 [nM] |
| --- | --- |
| COc1ccccc1CNC1=NS(=O)(=O)c2cccc(Cc3ccccc3Cl)c2N1 [Compound 12-24, 5-(2-chlorobenzyl)-3-((2-methoxybenzyl)amino)-4H-benzo[e][1,2,4]thiadiazine 1,1-dioxide] | < 100 |
| COc1cccnc1CNC1=NS(=O)(=O)c2cccc(Cc3ccccc3Cl)c2N1 [Compound 12-25, 5-(2-chlorobenzyl)-3-(((3-methoxypyridin-2-yl)methyl)amino)-4H-benzo[e][1,2,4]thiadiazine 1,1-dioxide] | < 100 |
| COc1ccncc1CNC1=NS(=O)(=O)c2cccc(Cc3ccccc3Cl)c2N1 [Compound 12-26, 5-(2-chlorobenzyl)-3-(((4-methoxypyridin-3-yl)methyl)amino)-4H-benzo[e][1,2,4]thiadiazine 1,1-dioxide] | 1000 to 2500 |
| O=S1(=O)N=C(NCc2ccccc2C(F)(F)F)Nc2c(Cc3ccccc3Cl)cccc21 [Compound 12-27, 5-(2-chlorobenzyl)-3-((2-(trifluoromethyl)benzyl)amino)-4H-benzo[e][1,2,4]thiadiazine 1,1-dioxide] | < 100 |
| O=S1(=O)N=C(NCc2cccnc2F)Nc2c(Cc3ccccc3Cl)cccc21 [Compound 12-28, 5-(2-chlorobenzyl)-3-(((2-fluoropyridin-3-yl)methyl)amino)-4H-benzo[e][1,2,4]thiadiazine 1,1-dioxide] | < 100 |
| O=S1(=O)N=C(NCc2ncccc2C(F)(F)F)Nc2c(Cc3ccccc3Cl)cccc21 [Compound 12-29, 5-(2-chlorobenzyl)-3-(((3-(trifluoromethyl)pyridin-2-yl)methyl)amino)-4H-benzo[e][1,2,4]thiadiazine 1,1-dioxide] | < 100 |
| O=S1(=O)N=C(NCc2cnccc2C(F)(F)F)Nc2c(Cc3ccccc3Cl)cccc21 [Compound 12-30, 5-(2-chlorobenzyl)-3-(((4-(trifluoromethyl)pyridin-3-yl)methyl)amino)-4H-benzo[e][1,2,4]thiadiazine 1,1-dioxide] | < 100 |
| O=S1(=O)N=C(NCc2cccnc2C(F)(F)F)Nc2c(Cc3ccccc3Cl)cccc21 [Compound 12-31, 5-(2-chlorobenzyl)-3-(((2-(trifluoromethyl)pyridin-3-yl)methyl)amino)-4H-benzo[e][1,2,4]thiadiazine 1,1-dioxide] | < 100 |
| O=S1(=O)N=C(NCc2cnccc2Cl)Nc2c(Cc3ccccc3Cl)cccc21 [Compound 12-32, 5-(2-chlorobenzyl)-3-(((4-chloropyridin-3-yl)methyl)amino)-4H-benzo[e][1,2,4]thiadiazine 1,1-dioxide] | < 100 |
| C=C(c1ccccc1F)c1cccc2c1NC(NCc1ncccc1Cl)=NS2(=O)=O [Compound 13-1, 3-(((3-chloropyridin-2-yl)methyl)amino)-5-(1-(2-fluorophenyl)vinyl)-4H-benzo[e][1,2,4]thiadiazine 1,1-dioxide] | < 100 |
| C=C(c1ccccc1F)c1cccc2c1NC(NCc1ncccc1F)=NS2(=O)=O [Compound 13-2, 5-(1-(2-fluorophenyl)vinyl)-3-(((3-fluoropyridin-2-yl)methyl)amino)-4H-benzo[e][1,2,4]thiadiazine 1,1-dioxide] | < 100 |
| C=C(c1ccccc1F)c1c(F)ccc2c1NC(NCc1ncccc1F)=NS2(=O)=O [Compound 13-3, 6-fluoro-5-(1-(2-fluorophenyl)vinyl)-3-(((3-fluoropyridin-2-yl)methyl)amino)-4H-benzo[e][1,2,4]thiadiazine 1,1-dioxide] | < 100 |
| O=S1(=O)N=C(NCc2ncccc2Cl)Nc2c(/C=C/c3ccccc3F)cccc21 [Compound 14-1, (E)-3-(((3-chloropyridin-2-yl)methyl)amino)-5-(2-fluorostyryl)-4H-benzo[e][1,2,4]thiadiazine 1,1-dioxide] | < 100 |
| O=S1(=O)N=C(NCc2ncccc2F)Nc2c1ccc(F)c2/C=C/c1ccccc1F [Compound 14-2, (E)-6-fluoro-3-(((3-fluoropyridin-2-yl)methyl)amino)-5-(2-fluorostyryl)-4H-benzo[e][1,2,4]thiadiazine 1,1-dioxide] | 100 to 500 |
